Test results taken from patent publication US20080268123A1, “Onion Flavoured Compounds and Use” (GIVAUDAN SA, priority 2005, published 2008).
Entries after “also recorded” stand apart in the source; their conditions may differ.

Experiments:
[1] = Sensory effects of compounds of formula I in water (triangle test, trained panel); conditions: additive 5 mmol/L
Description: (§1) Unless otherwise indicated, all sensory tests are triangle tests and are performed according to the guidelines in “Amtliche Sammlung von Untersuchungsverfahren nach § 35 LMBG (Lebensmittel-und Bedarfsgegenständegesetz)”; L 00.90 7 , Untersuchung von Lebensmitteln , Sensorische Prüfverfahren, Dreiecksprüfung (Übernahme der gleichnahmigen Deutschen Norm DIN ISO 4120, Ausgabe Januar 1995), as follows:
(§2) The sensory panel is trained to evaluate the taste of aqueous solutions (4 ml each) of the following standard taste compounds by using a triangle test as described in the literature (Wieser and Belitz, Z. Lebensm. Unters. Forsch., 1975, 159, 65-72): sucrose (40 mmol/L) for sweet taste; citric acid (5 mmol/L) for sour taste; NaCl (12 mmol/L) for salty taste; caffeine (2 mmol/L) for bitter taste; and monosodium glutamate (MSG; 6 mmol/L) for umami taste. For kokumi taste, a solution of glutathione (10 mmol/L) in diluted chicken broth concentrate (Gourmet Bouillon Huhn, Maggi, Singen, Germany; 3 g/100 g bottled water (Evian®)) is prepared and compared to the taste of chicken broth with no glutathione added. All sensory analyses are performed in a sensory panel room at 22-25° C. over three different sessions by a trained panel of 8 to 10 individuals.
(§3) For recording the taste profiles, samples are prepared as indicated in the examples below. Taste profiles of samples are determined in a triangle test in three different sessions. Panellists refrain from eating or drinking for at least 1 hour prior to the session. At the start of the session and before each trial, the subject rinsed with water and expectorated. The participants receive a set of two blanks and one taste sample. Liquid samples are swirled around in the mouth briefly and expectorated. Solid samples are chewed for 20 seconds and then expectorated. […] Each sample with additive is compared to two reference samples without additives.

[2] = Sensory effects of compounds of formula I in chicken broth (triangle test, trained panel); conditions: for kokumi intensity (0-5): broth without additives = 2
Description: as §1, §2, §3
Sensory tests (triangle test) are performed at least three times for each compound using sensory panels of different individuals to confirm results.
Chicken Broth is prepared by dilution of 3 g chicken broth concentrate (Gourmet Bouillon Huhn; Maggi, Singen, Germany) with 100 ml water (Evian). Additives are added as specified in table below.
The pH-value of all samples is adjusted to 6.5 using formic acid (0.1 mol/L) or sodium hydroxide (0.1 mol/L).
Flavour intensity (onion or kokumi) is rated from 0-5 according to a scale from 0 to 5 (with 5 most intensive). GSH (5 mmol/L) is determined to have an kokumi intensity of 3 in all tests.
The additive is added to a consumable and the sample is homogenised. The samples are presented to the sensory panel directly after homogenisation.
For each sample, flavour intensity is rated and panelists are asked to describe sensory characteristics.

[3] = Onion flavour compounds in tomato soup (sensory panel)
Description: as §1, §3
Cys-O—C2H5 and γ-Glu-Cys-O—C2H5 are added to tomato soup (Unox, Unilever Bestfoods, Germany, pH 4,5), in the concentrations indicated below.

[4] = Onion flavour compounds in mushroom cream soup (sensory panel); conditions: mushroom cream soup pH 6.0, additive 1 mmol/L
Description: as §1, §3
Cys-O—C2H5and γ-Glu-Cys-O—C2H5are added to mushroom cream soup (Unox, Unilever Bestfoods, Germany), pH 6.0 in a concentration of 1 mmol/L samples are evaluated directly after homogenisation.

[5] = Onion flavour compounds in barbecue sauce (sensory panel); conditions: barbecue sauce pH 3.3, additive 5 mmol/L
Description: as §1, §3
Onion flavour compounds as indicated in the table below are added to barbecue sauce (Kraft Foods, Germany), pH 3.3.

[6] = chicken broth pH 6.5, additive 5 mmol/L
[7] = chicken broth pH 6.5, additive 5 mmol/L, scale 0 to 5 (5 most intensive)
[8] = chicken broth pH 6.5, additive 5 mmol/L, scale 0 to 5
[9] = tomato soup pH 4,5, additive 1 mmol/L
[10] = tomato soup pH 4,5, additive 5 mmol/L
[11] = chicken broth pH 6.5, additive 10 mmol/L (positive control)
[12] = chicken broth pH 6.5, additive 30 mmol/L (positive control)

Compound | Onion flavour intensity [1] | Sensory description [1] | Sensory descriptors [2, 6] | onion flavour intensity (0-5) [2, 7] | kokumi intensity (0-5) [2, 8] | further results
N[C@@H](CS)C(=O)O [Cys-OH, reference compound] | 0 | sweet | increased sweetness | 0 | 2 | –
CCOC(=O)[C@@H](N)CS [Cys-O—C2H5] | 3.5 | onion flavour | onion flavour | 3 | 2 | Test results (sensory description versus reference) [3, 9]: onion like and slightly meaty flavour; also recorded: Preferred, onion like flavour, slightly meaty; Test results (sensory description versus reference) [3, 10]: onion like and slightly meaty flavour; Test results (sensory description versus reference) [4]: Preferred, onion like flavour; panelists indicating an onion like flavour [4]: 7 out of 8; Test results (sensory description versus reference) [5]: Preferred, onion like flavour, meaty
COC(=O)[C@@H](N)CS [Cys-O—CH3] | 2.5 | onion flavour | onion flavour | 2 | 2 | –
N[C@@H](CCC(=O)N[C@@H](CS)C(=O)NCC(=O)O)C(=O)O [GSH, reduced form, glutathione, reference compound] | – | – | increased kokumi taste | 0 | 3 | –
N[C@@H](CCC(=O)O)C(=O)[O-].[Na+] [MSG, mono sodium glutamate, reference compound] | – | – | – | – | – | Sensory descriptors [2, 11]: increased umami taste; onion flavour intensity (0-5) [2, 11]: 0; kokumi intensity (0-5) [2, 11]: 2
CSCC[C@H](N)C(=O)O [Met-OH] | 0 | sweet | – | – | – | –
CCOC(=O)[C@@H](N)CCSC [Met-O—C2H5] | 1.5 | slight onion flavour | slight onion flavour | 1.5 | 2 | –
COC(=O)[C@@H](N)CCSC [Met-O—CH3] | 1 | slight onion flavour | slight onion flavour | 0.5 | 2 | –
[Cl-].[Na+] [NaCl, reference compound] | – | – | – | – | – | Sensory descriptors [2, 12]: increased salt taste; onion flavour intensity (0-5) [2, 12]: 0; kokumi intensity (0-5) [2, 12]: 2
CCOC(=O)[C@@H](N)CO [Ser-O—C2H5] | 0 | slightly sweet | – | – | – | –
COC(=O)[C@@H](N)CO [Ser-O—CH3] | 0 | slightly sweet | – | – | – | –
CCOC(=O)CNC(=O)[C@H](CS)NC(=O)CC[C@H](N)C(=O)O [γ-Glu-Cys-Gly-O—C2H5] | 0 | intensely bitter | – | – | – | –
N[C@@H](CCC(=O)N[C@@H](CS)C(=O)O)C(=O)O [γ-Glu-Cys-OH, reference compound] | 0 | tasteless | increased kokumi taste | 0 | 4 | –
CCOC(=O)[C@H](CS)NC(=O)CC[C@H](N)C(=O)O [γ-Glu-Cys-O—C2H5] | 4.5 | onion flavour | strong onion flavour, increased | 4 | 3.5 | Test results (sensory description versus reference) [3, 9]: more roasty; also recorded: Preferred, onion like flavour, meaty, roasty, slightly; Test results (sensory description versus reference) [3, 10]: Preferred, strong onion like flavour, meaty, roasty, more; Panel description in text (difference, preference, kokumi taste) ([3]; tomato soup pH 4,5, samples with 1 mmol/L and 5 mmol/L taken together): kokumi taste; Test results (sensory description versus reference) [4]: the observed effect is higher; also recorded: Preferred, strong onion like flavour, meaty,; Test results (sensory description versus reference) [5]: more roasty; also recorded: kokumi taste; also recorded: Preferred, strong onion like flavour, meaty,
γ-Glu-Cys(S—C2H5)-Gly-O—C2H5 | 0 | intensely bitter | – | – | – | –
